Measured values published in ChEMBL document CHEMBL5257089, “Gamabufotalin Induces Apoptosis and Cytoprotective Autophagy through the mTOR Signaling Pathway in Hepatocellular Carcinoma” (J Nat Prod, 2023).
The source made the active and inactive calls. No cut-off for these calls is given here.

Experiments:
Huh-7 [1] = experiment: Induction of autophagic flux in human Huh-7 cells assessed as increase in number of autophagic vesicles at 10 nM by transmission electron microscopic analysis; format: functional, cell-based
Hep 3B2 [2] = experiment: Induction of apoptosis in human Hep3B cells assessed as viable cells at 10 nM incubated for 48 hrs by Annexin V-FITC/PI staining based flow cytometry method (reference value: 94.0%); format: functional; conditions: read-out: Activity
Huh-7 [3] = experiment: Induction of apoptosis in human Huh-7 cells assessed as necrotic cells at 10 nM incubated for 48 hrs by Annexin V-FITC/PI staining based flow cytometry method (reference value: 1.0%); format: functional
Hep 3B2 [4] = experiment: Induction of autophagy in human Hep3B cells assessed as rescue of mTOR phosphorylation level at upto 10 nM incubated for 48 hrs in presence of gamabufotalin by immunoblot method; format: functional, cell-based
Huh-7 [5] = experiment: Antiproliferative activity against human Huh-7 cells assessed as cell viability incubated for 24 hrs by CCK-8; format: functional, cell-based; conditions: Huh-7, 24 h
Hep 3B2 [6] = experiment: Induction of morphological changes in human Hep3B cells assessed as adherent cells at upto 25 nM incubated for 48 hrs by bright field imaging analysis; format: functional, cell-based
Huh-7 [7] = experiment: Inhibition of colony formation in human Huh-7 cells at upto 25 uM incubated for 48 hrs by crystal violet staining based analysis; format: functional, cell-based
Hep 3B2 [8] = experiment: Induction of apoptosis in human Hep3B cells assessed as viable cells at 15 nM incubated for 48 hrs by Annexin V-FITC/PI staining based flow cytometry method (reference value: 93.3%); format: functional; conditions: read-out: Activity
Hep 3B2 [9] = experiment: Induction of apoptosis in human Hep3B cells assessed as viable cells at 20 nM incubated for 48 hrs by Annexin V-FITC/PI staining based flow cytometry method (reference value: 93.3%); format: functional; conditions: read-out: Activity
Hep 3B2 [10] = experiment: Induction of apoptosis in human Hep3B cells assessed as viable cells at 25 nM incubated for 48 hrs by Annexin V-FITC/PI staining based flow cytometry method (reference value: 93.3%); format: functional; conditions: read-out: Activity
Hep 3B2 [11] = experiment: Induction of apoptosis in human Hep3B cells assessed as late apoptotic cells at 25 nM incubated for 48 hrs by Annexin V-FITC/PI staining based flow cytometry method (reference value: 2.6%); format: functional
Huh-7 [12] = experiment: Induction of apoptosis in human Huh-7 cells assessed as necrotic cells at 15 nM incubated for 48 hrs by Annexin V-FITC/PI staining based flow cytometry method (reference value: 0.7%); format: functional
Huh-7 [13] = experiment: Induction of apoptosis in human Huh-7 cells assessed as increase in cleaved PARP expression at upto 25 nM incubated for 48 hrs by Western blot analysis; format: functional, cell-based
Hep 3B2 [14] = experiment: Induction of apoptosis in human Hep3B cells assessed as late apoptotic cells at 25 nM measured after 48 hrs in presence of Z-VAD-FMK by annexin V-FITC/Propidium iodide staining based flow cytometric analysis (reference value: 2.4%); format: functional
Huh-7 [15] = experiment: Induction of apoptosis in human Huh-7 cells assessed as necrotic cells at 25 nM measured after 48 hrs in presence of z-VAD-FMK by annexin V-FITC/Propidium iodide staining based flow cytometric analysis (reference value: 0.0%); format: functional
Hep 3B2 [16] = experiment: Induction of autophagic flux in human Hep3B cells harbouring mCherry-egfp-LC3 assessed as increase in red puncta at 25 nM incubated for 15 mins by laser scanning confocal microscopic analysis; format: functional, cell-based
Huh-7 [17] = experiment: Induction of autophagic flux in human Huh-7 cells assessed as increase in high electron density vesicles at 25 nM incubated for 48 hrs by transmission electron microscopic analysis; format: functional, cell-based
Hep 3B2 [18] = experiment: Induction of autophagic flux in human Hep3B cells assessed as decrease in p62 expression at upto 25 nM incubated for 48 hrs by Western blot analysis; format: functional, cell-based
Huh-7 [19] = experiment: Induction of autophagic flux in human Huh-7 cells assessed as rescue of LC3-I accumulation at 25 uM incubated for 48 hrs in presence of chloroquine by Western blot analysis; format: functional, cell-based
Hep 3B2 [20] = experiment: Induction of apoptosis in human Hep3B cells assessed as viable cells at 25 nM incubated for 48 hrs by Annexin V-FITC/PI staining based flow cytometry method (reference value: 94.0%); format: functional; conditions: read-out: Activity
Hep 3B2 [21] = experiment: Induction of apoptosis in human Hep3B cells assessed as early apoptotic cells at 25 nM incubated for 48 hrs in presence of chloroquine by Annexin V-FITC/PI staining based flow cytometry method (reference value: 1.3%); format: functional
Hep 3B2 [22] = experiment: Induction of apoptosis in human Hep3B cells assessed as late apoptotic cells at 25 nM incubated for 48 hrs in presence of chloroquine by Annexin V-FITC/PI staining based flow cytometry method (reference value: 3.5%); format: functional
Huh-7 [23] = experiment: Induction of apoptosis in human Huh-7 cells assessed as late apoptotic cells at 25 nM incubated for 48 hrs by Annexin V-FITC/PI staining based flow cytometry method (reference value: 4.7%); format: functional
Hep 3B2 [24] = experiment: Induction of apoptosis in human Hep3B cells assessed as necrotic cells at 25 nM incubated for 48 hrs by Annexin V-FITC/PI staining based flow cytometry method (reference value: 0.7%); format: functional
Huh-7 [25] = experiment: Induction of apoptosis in human Huh-7 cells assessed as necrotic cells at 25 nM incubated for 48 hrs in presence of 4,6-dimorpholino-N-(4-nitrophenyl)-1,3,5-triazin-2-amine by Annexin V-FITC/PI staining based flow cytometry method (reference value: 1.9%); format: functional
Huh-7 [26] = experiment: Induction of apoptosis in human Huh-7 cells assessed as upregulation of bax level […] incubated for 48 hrs in presence of 4,6-dimorpholino-N-(4-nitrophenyl)-1,3,5-triazin-2-amine by immunoblot analysis; format: functional, cell-based
Hep 3B2 [27] = experiment: Induction of autophagy in human Hep3B cells assessed as rescue of mTOR phosphorylation level at upto 25 nM incubated for 48 hrs in presence of chloroquine by immunoblot method; format: functional, cell-based
Huh-7 [28] = experiment: Induction of autophagy in human Huh-7 cells assessed as upregulation of p62 at 25 uM incubated for 48 hrs in presence of 4,6-dimorpholino-N-(4-nitrophenyl)-1,3,5-triazin-2-amine by immunoblot analysis; format: functional, cell-based
Huh-7 [29] = experiment: Induction of autophagy in human Huh-7 cells assessed as downregulation of LC3II/LC3I ratio at 25 uM incubated for 48 hrs in presence of 4,6-dimorpholino-N-(4-nitrophenyl)-1,3,5-triazin-2-amine by immunoblot analysis; format: functional, cell-based
Hep 3B2 [30] = experiment: Antitumor activity against human Hep3B cells xenografted in nude mouse model assessed as decrease in tumor volume at 5 mg/kg,ip administered every second day for 3 weeks by vernier caliper method; format: functional, organism-based
[31] = Toxicity in mouse assessed as effect on body weight at 5 mg/kg,ip administered every second day for 3 weeks; format: organism-based; conditions: in vivo, 504 h
Hep 3B2 [32] = experiment: Antitumor activity against human Hep3B cells xenografted in nude mouse model assessed as downregulation of m-TOR phosphorylation expression expression at 5 mg/kg,ip administered every second day for 3 weeks by Western blot analysis; format: functional, organism-based
Hep 3B2 [33] = experiment: Antitumor activity against human Hep3B cells xenografted in nude mouse model assessed as downregulation of P62 expression at 5 mg/kg,ip administered every second day for 3 weeks by Western blot analysis; format: functional, organism-based
[34] = Toxicity in mouse assessed as effect on kidney at 5 mg/kg,ip administered every second day for 3 weeks by H and E staining based microscopic method; format: organism-based; conditions: in vivo, 504 h

## CCN(CC)CCCC(C)Nc1ccnc2cc(Cl)ccc12 (centres undefined) [CHLOROQUINE]
Huh-7 [1]
  Activity: Active
Hep 3B2 [2]
  viability at 0.01 µM: 93.6%
Huh-7 [3]
  Activity: 1.9%
Hep 3B2 [4]
  Activity: Active

## C[C@]12CC[C@H](O)C[C@H]1CC[C@@H]1[C@@H]2[C@H](O)C[C@]2(C)[C@@H](c3ccc(=O)oc3)CC[C@]12O [GAMABUFOTALIN]
Huh-7 [5]
  IC50: 23 nM
Hep 3B2 [6]
  Activity: Active
Huh-7 [7]
  inhibition: Active
Hep 3B2 [8]
  viability at 0.015 µM: 88.2%
Hep 3B2 [9]
  viability at 0.02 µM: 88.7%
Hep 3B2 [10]
  viability at 0.025 µM: 84.9%
Hep 3B2 [11]
  Activity: 5.2%
Huh-7 [12]
  Activity: 4%
Huh-7 [13]
  Activity: Active
Hep 3B2 [14]
  Activity: 3.5%
Huh-7 [15]
  Activity: 0.3%
Hep 3B2 [16]
  Activity: Active
Huh-7 [17]
  Activity: Active
Hep 3B2 [18]
  Activity: Active
Huh-7 [19]
  Activity: Active
Hep 3B2 [20]
  viability at 0.025 µM: 71.4%
Hep 3B2 [21]
  Activity: 17.9%
Hep 3B2 [22]
  Activity: 17.4%
Huh-7 [23]
  Activity: 10.2%
Hep 3B2 [24]
  Activity: 0.5%
Huh-7 [25]
  Activity: 1.7%
Huh-7 [26]
  Activity: Active
Hep 3B2 [27]
  Activity: Active
Huh-7 [28]
  Activity: Active
Huh-7 [29]
  Activity: Active
Hep 3B2 [30]
  Activity: Active
[31]
  Activity: Non-Toxic
Hep 3B2 [32]
  Activity: Active
Hep 3B2 [33]
  Activity: Active
[34]
  Activity: Non-Toxic
